From patent US20240325366A1, “SELECTIVE CDK9 INHIBITOR FOR THE TREATMENT OF A RAS MUTANT CANCER” (VINCERX PHARMA, INC., priority 2021, published 2024)
Read-outs that look alike come from different tables or passages of the source.

What was measured:
Type in all cases: cell-based
[1] = tested on: panel of 500 tumor cell lines; experiment: antiproliferative activity, panel of 500 tumor cell lines (OmniScreen)
Description: (§1) To determine associations of genomic alterations with compound 1′ sensitivity, 458 were mapped to a cell line present in DepMap (21Q3). Of the 458 cell lines mapped, there were 440 with available mutation data in DepMap. Cell line mutation and copy number data were accessed and for mutations, the data were filtered to include variants with a “damaging” or “other non-conserving” annotation only, in order to select variants which are more likely to be functionally important. The top quartile of cell lines based on their compound 1′IC50 values were defined as groups for comparison with the bottom quartile.

[2] = tested on: KRAS mutant colorectal and lung cancer cell lines; experiment: in vitro cytotoxicity, MTT assay, summary; settings: multiple KRAS mutant colorectal and lung cancer cell lines
Procedure: (§2) Cultivation of cells was performed according to standard procedures with the media recommended by the provider. The cells, in a total volume of 100 μL, were seeded in a 96-well plate with a white bottom (#3610). After a 24h incubation period at 37° C. and 5% CO2 the medium was exchanged by adding 90 μL fresh medium. The treatment started by adding the test compound in 10 μL of culture medium to the cells in triplicates. Concentrations ranging from 10^−6 M to 10^−13 M were chosen. The proliferation was detected using the MTT assay (ATCC). At the end of the incubation period the MTT reagent was added to all samples for 4h. Lysis of the cells followed by addition of the detergent was done overnight. The formed dye was detected at 570 nm. The proliferation of cells was defined as the 100% value.

A549 = experiment: in vitro cytotoxicity, MTT assay; settings: Homo sapiens; A549, Lung, KRAS p.G12S
Procedure: as §2

SW480 = experiment: in vitro cytotoxicity, MTT assay; settings: Homo sapiens; SW480, Colorectal, KRAS p.G12V
Procedure: as §2

HT-29 = experiment: in vitro cytotoxicity, MTT assay; settings: Homo sapiens; HT-29, Colorectal, KRAS WT
Procedure: as §2

SW620 = experiment: in vitro cytotoxicity, MTT assay; settings: Homo sapiens, SW-620; SW620, Colorectal, KRAS p.G12V
Procedure: as §2

MIAPaCa2 = experiment: in vitro cytotoxicity, MTT assay; settings: Homo sapiens, MIA PaCa-2; MIAPaCa2, Pancreatic, KRAS pG12C
Procedure: as §2

HCT15 = experiment: in vitro cytotoxicity, MTT assay; settings: Homo sapiens, HCT-15; HCT15, Colorectal, KRAS p.G13D
Procedure: as §2

COLO205 = experiment: in vitro cytotoxicity, MTT assay; settings: Homo sapiens, COLO 205; COLO205, Colorectal, KRAS WT
Procedure: as §2

SW837 = experiment: in vitro cytotoxicity, MTT assay; settings: Homo sapiens; SW837, Colorectal, KRAS pG12C
Procedure: as §2

NCI-H460 = experiment: in vitro cytotoxicity, MTT assay; settings: Homo sapiens; NCI-H460, Lung, KRAS p.Q61H
Procedure: as §2

HCT8 = experiment: in vitro cytotoxicity, MTT assay; settings: Homo sapiens, HCT-8; HCT8, Colorectal, KRAS WT
Procedure: as §2

HCT116 = experiment: in vitro cytotoxicity, MTT assay; settings: Homo sapiens, HCT-116; HCT116, Colorectal, KRAS p.G13D
Procedure: as §2

SU.86.86 = experiment: antiproliferative activity (OmniScreen); settings: Homo sapiens; SU.86.86, Pancreas, 72 hours; read-out: Absolute IC50
Description: as §1

Panc 05.04 = experiment: antiproliferative activity (OmniScreen); settings: Panc 05.04, Pancreas, 72 hours; read-out: Absolute IC50
Description: as §1

NCI-H1944 = experiment: antiproliferative activity (OmniScreen); settings: Homo sapiens; NCI-H1944, Lung, 72 hours; read-out: Absolute IC50
Description: as §1

RBE = experiment: antiproliferative activity (OmniScreen); settings: Liver/Bile duct, 72 hours, read-out: Absolute IC50
Description: as §1

HEC-1-B = experiment: antiproliferative activity (OmniScreen); settings: Homo sapiens, Uterus, 72 hours, read-out: Absolute IC50
Description: as §1

UM-UC-3 = experiment: antiproliferative activity (OmniScreen); settings: Homo sapiens, UMUC3; UM-UC-3, Bladder, 72 hours; read-out: Absolute IC50
Description: as §1

CoC1/DDP = experiment: antiproliferative activity (OmniScreen); settings: Ovary, 72 hours, read-out: Absolute IC50
Description: as §1

SU-DHL-10 = experiment: antiproliferative activity (OmniScreen); settings: Homo sapiens, SU-DHL10; SU-DHL-10, Lymphoma, 72 hours; read-out: Absolute IC50
Description: as §1

MOLP8 = experiment: antiproliferative activity (OmniScreen); settings: Homo sapiens, MOLP-8; MOLP8, Blood/Myeloma, 72 hours; read-out: Absolute IC50
Description: as §1

HCC44 = experiment: antiproliferative activity (OmniScreen); settings: Homo sapiens; HCC44, Lung, 72 hours; read-out: Absolute IC50
Description: as §1

DV-90 = experiment: antiproliferative activity (OmniScreen); settings: Homo sapiens; DV-90, Lung, 72 hours; read-out: Absolute IC50
Description: as §1

LCLC-97TM1 = experiment: antiproliferative activity (OmniScreen); settings: Homo sapiens; LCLC-97TM1, Lung, 72 hours; read-out: Absolute IC50
Description: as §1

Calu-6 = experiment: antiproliferative activity (OmniScreen); settings: Homo sapiens; Calu-6, Lung, 72 hours; read-out: Absolute IC50
Description: as §1

NCI-H2122 = experiment: antiproliferative activity (OmniScreen); settings: Homo sapiens; NCI-H2122, Lung, 72 hours; read-out: Absolute IC50
Description: as §1

143B = experiment: antiproliferative activity (OmniScreen); settings: Homo sapiens, Bone, 72 hours, read-out: Absolute IC50
Description: as §1

LS513 = experiment: antiproliferative activity (OmniScreen); settings: Homo sapiens, LS-513; LS513, Large intestine/Colorectum, 72 hours; read-out: Absolute IC50
Description: as §1

NCI-H358 = experiment: antiproliferative activity (OmniScreen); settings: Homo sapiens; NCI-H358, Lung, 72 hours; read-out: Absolute IC50
Description: as §1

IC50 ([1]; N=110 cell lines with mutation data in DepMap, read-out: IC50 bottom quartile (most sensitive cell lines)): ≤ 90.5 nM
IC50 ([1]; N=130 cell lines with mutation data in DepMap, read-out: IC50 top quartile (least sensitive cell lines)): ≥ 152 nM
IC50 ([1]; panel of 500 tumor cell lines, 72 hours of treatment, read-out: IC50 range, lower end): 28 nM
IC50 ([1]; panel of 500 tumor cell lines, 72 hours of treatment, read-out: IC50 range, upper end): 2100 nM
IC50 ([1]; panel of 500 tumor cell lines, 72 hours of treatment, read-out: mean IC50): 113 nM
IC50 (Panc 05.04): 38 nM
IC50 (NCI-H1944): 75 nM
IC50 (SU-DHL-10): 74 nM
IC50 (HCC44): 90 nM
IC50 (Calu-6): 39 nM
IC50 (NCI-H2122): 70 nM
IC50 (NCI-H358): 41 nM
Structure (SMILES): COc1cc(F)ccc1-c1cc(Nc2cc(CS(C)(=N)=O)ccn2)ncc1F (single isomer, unassigned; (+)) [Compound 1′, (+)5-fluoro-4-(4-fluoro-2-methoxyphenyl)-N-{4-[(S-methylsulfonimidoyl)methyl]pyridin-2-yl}pyridin-2-amine]
activity against KRAS mutant cancer cell lines [2]: active
IC50 (A549): 98 nM
IC50 (SW480): 143 nM
IC50 (HT-29): 83 nM
IC50 (SW620): > 500 nM
IC50 (MIAPaCa2): 128 nM
IC50 (HCT15): 33.5 nM
IC50 (COLO205): 70 nM
IC50 (SW837): 620 nM
IC50 (NCI-H460): 75 nM
IC50 (HCT8): 83 nM
IC50 (HCT116): 46 nM
IC50 (SU.86.86): 82 nM
IC50 (RBE): 72 nM
IC50 (HEC-1-B): 67 nM
IC50 (UM-UC-3): 67 nM
IC50 (CoC1/DDP): 72 nM
IC50 (MOLP8): 80 nM
IC50 (DV-90): 90 nM
IC50 (LCLC-97TM1): 46 nM
IC50 (143B): 73 nM
IC50 (LS513): 51 nM
